Here are results for one compound from patent publication US20140135390A1, “Modified Platinum Compounds” (priority 2011, published 2014).

The subject of data set [1] is murine breast cancer cells EMT-6. Nature of the data set: In vitro cell viability of EMT-6 cells after 48 hours incubation, viable cells counted with a hemocytometer. Particulars: 1 μM, 50 μM and 100 μM. It counts as cell-based. The protocol: A murine breast cancer cells EMT-6 (0.5*10^6 cells/plate) were plated and grown in Dulbecco's Modified Eagle Medium (DMEM) supplemented with 10% FBS, 2% L-Glutamine Solution (200 mM), 2% Pen-Strep Solution (Biological Industries), and […] D-Glucose under regular growth conditions: 5% CO2, and 37.6° C.
After the incubation time, cells were washed with PBS (3 times), harvested using Trypsin-EDTA solution (Biological Industries), and the number of viable cells was counted under microscope using a microscope counting chamber (Hemocytometer).

Data set [2] has as its system treated patients. The following applies: dose limiting toxicity; cited from earlier work.

`N.N.[Cl][Pt][Cl]` [Cisplatin, cis-diamminedichloroplatinum(II)]: the “toxicity to the cells / effect on cell number (FIG. 1)” value in data set [1] is given as “dose-dependent reduction in the cells”. In addition, the “sensory neuropathy, share of treated patients” value in data set [2] is recorded as “more than 20%”.
